Results published in paper PMC11945486, “TAS1R2/TAS1R3 Single-Nucleotide Polymorphisms Affect Sweet Taste Receptor Activation by Sweeteners: The SWEET Project” (Nutrients, 2025).
Where two headings read alike, the source gives them in different places. No end group written: not given here.

Target: T1, human TAS1R2-WT/TAS1R3-WT (Homo sapiens, UniProt Q7RTX0+Q8TE23)
T1 construct: expressed in transfected cells; host or cells: HEK293T-Gα16gust44
T1 sequence (Q8TE23 20-839): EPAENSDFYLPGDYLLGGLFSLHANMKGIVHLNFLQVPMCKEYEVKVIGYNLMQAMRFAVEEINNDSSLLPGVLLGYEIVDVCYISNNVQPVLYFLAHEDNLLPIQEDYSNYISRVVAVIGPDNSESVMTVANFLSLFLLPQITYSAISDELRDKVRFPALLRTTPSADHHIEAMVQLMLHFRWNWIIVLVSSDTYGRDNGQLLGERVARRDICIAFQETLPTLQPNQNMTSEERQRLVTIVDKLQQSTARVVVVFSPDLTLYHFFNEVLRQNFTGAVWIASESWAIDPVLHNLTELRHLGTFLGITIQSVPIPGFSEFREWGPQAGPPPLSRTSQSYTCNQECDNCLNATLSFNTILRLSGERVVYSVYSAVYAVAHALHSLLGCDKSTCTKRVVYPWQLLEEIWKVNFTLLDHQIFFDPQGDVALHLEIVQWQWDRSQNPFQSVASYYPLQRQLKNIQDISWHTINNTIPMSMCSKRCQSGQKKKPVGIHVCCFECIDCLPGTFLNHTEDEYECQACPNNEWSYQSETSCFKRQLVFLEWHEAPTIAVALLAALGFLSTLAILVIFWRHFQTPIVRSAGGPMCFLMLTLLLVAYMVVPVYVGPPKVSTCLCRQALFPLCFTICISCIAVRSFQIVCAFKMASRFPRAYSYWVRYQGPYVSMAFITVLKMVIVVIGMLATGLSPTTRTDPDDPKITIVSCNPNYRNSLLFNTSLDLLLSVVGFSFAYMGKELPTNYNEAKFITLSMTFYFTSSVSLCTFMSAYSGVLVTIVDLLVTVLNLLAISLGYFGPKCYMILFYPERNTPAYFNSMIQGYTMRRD
T1 sequence (Q7RTX0 21-852): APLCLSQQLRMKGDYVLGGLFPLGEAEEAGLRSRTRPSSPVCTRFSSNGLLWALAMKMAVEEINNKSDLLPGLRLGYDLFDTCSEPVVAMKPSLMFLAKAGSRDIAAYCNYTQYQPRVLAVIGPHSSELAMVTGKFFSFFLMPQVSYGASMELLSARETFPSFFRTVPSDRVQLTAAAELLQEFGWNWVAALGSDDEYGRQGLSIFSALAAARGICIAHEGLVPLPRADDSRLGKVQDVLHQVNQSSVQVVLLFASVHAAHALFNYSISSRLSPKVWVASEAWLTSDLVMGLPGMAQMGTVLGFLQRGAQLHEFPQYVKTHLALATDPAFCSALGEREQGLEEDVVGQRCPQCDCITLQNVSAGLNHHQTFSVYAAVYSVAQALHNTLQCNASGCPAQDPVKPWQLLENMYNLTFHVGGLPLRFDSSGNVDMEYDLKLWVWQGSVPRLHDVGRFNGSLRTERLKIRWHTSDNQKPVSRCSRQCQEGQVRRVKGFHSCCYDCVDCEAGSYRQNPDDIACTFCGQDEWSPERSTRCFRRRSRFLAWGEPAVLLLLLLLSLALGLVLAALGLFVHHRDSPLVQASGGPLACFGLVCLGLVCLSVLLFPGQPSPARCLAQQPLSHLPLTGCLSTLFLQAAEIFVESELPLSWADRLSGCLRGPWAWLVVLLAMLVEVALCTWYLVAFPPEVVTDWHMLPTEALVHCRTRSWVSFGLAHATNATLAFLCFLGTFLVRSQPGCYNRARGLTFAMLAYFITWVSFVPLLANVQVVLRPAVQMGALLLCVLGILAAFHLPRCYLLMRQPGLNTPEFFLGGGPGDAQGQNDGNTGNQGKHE
Test: Calcium mobilisation assay, HEK293T-Gα16gust44 cells, human sweet taste receptor WT
Format: cell-based
Conditions: for Max ΔF/F0: maximal signal amplitude
Excerpt: The coding sequences for TAS1R2 and TAS1R3 were commercially synthesised, and the human codon was optimised for expression in human cells. The coding sequences of human TAS1R2 and TAS1R3 were subcloned and inserted into the mammalian expression vectors pcDNA6/myc-HisA and pcDNA4/myc-HisA (Invitrogen; Thermo Fisher Scientific; Illkirch, France) between the EcoRI and NotI restriction sites, generating the plasmids pcDNA6-TAS1R2 and pcDNA4-TAS1R3, respectively. To increase protein expression in mammalian cells, an upstream start codon was used, which was a sequence called MAX, corresponding to the QBI SP163 element also described in pcDNA4-HisMax (Invitrogen; Thermo Fisher Scientific; Illkirch, France). To measure the expression level of the receptor by immunohistochemistry, we used the FLAG sequence ([…]) in the C-terminal position, which encodes the FLAG tag epitope. SNP variants of TAS1R2 and TAS1R3 were constructed based on […], respectively, using site-directed mutagenesis (Genewiz; Leipzig, Germany).
The HEK293T cells were kindly provided by Jay P. Slack (Givaudan Flavors Corporation; Cincinnati, OH, USA). HEK293T cells stably transfected with Gα16gust44 [43, 67] were seeded in poly-D-lysine-coated clear-bottom black 96-well plates (0.35 × 10^5 cells/well) in high-glucose DMEM supplemented with 2 mM GlutaMAX, 10% dialysed foetal bovine serum with penicillin/streptomycin and G418 (400 μg/mL) at 37 °C and 6.3% CO2 in a humidified atmosphere as previously reported. […] As a negative control, HEK293T cells were mock-transfected with the empty expression vector. After a further 24 h of incubation, the HEK293T cells were washed with C1 buffer (130 mM NaCl, 5 mM KCl, 10 mM HEPES pH 7.4 and 2 mM CaCl2). The 96-well plates containing the cells were then stimulated with sweet-tasting compounds. […] Different concentration ranges were tested depending on the sweet compound injected. The Ca^2+ changes were expressed as fractional changes in fluorescent light intensity: ΔF/F = (F − F0)/F0, where F was the fluorescent light intensity at each point, and F0 was the value of emitted fluorescent light prior to stimulus application. To calculate dose–response relationships, the changes in fluorescence upon stimulus application were averaged, mock-subtracted and baseline-corrected. The dose–response data obtained were adjusted using a 4-parameter logistic equation. The half-maximal effective concentrations (EC50 values) and maximal signal amplitudes were calculated using SigmaPlot software (version 15.0) (Systat Software; San Jose, CA, USA).
For in vitro calcium mobilisation assay performed on hTAS1R2-SNPs, hTAS1R3-SNPs and mTAS1R3-I60T, 6 to 7 concentrations were tested for each sweet compound, plus buffer alone. All concentration–receptor combinations were measured in duplicate, and each experiment was repeated at least 4 times (8 wells/concentration). Results were expressed for each concentration as ΔF/F mean ± SEM and represented as dose–response curves.

[1] = TAS1R2-WT + TAS1R3-WT, read-out: EC50
[2] = TAS1R2-WT/TAS1R3-WT, read-out: EC50

CC1=CC(=O)NS(=O)(=O)O1 [Acesulfame K, acesulfame K]
R1 = Variant EC50/WT EC50 (TAS1R2-WT + TAS1R3-WT): 1.0 | Max ΔF/F0 (TAS1R2-WT + TAS1R3-WT): 0.31 ± 0.01 | EC50 [1]: 705 ± 7 µM | R1 = Variant EC50/WT EC50 (TAS1R2-WT/TAS1R3-WT): 1.0 | Max ΔF/F0 (TAS1R2-WT/TAS1R3-WT): 0.28 ± 0.01 | EC50 [2]: 622 ± 45 µM

O=S(=O)(O)NC1CCCCC1 [Cyclamate, cyclamate]
EC50 [1]: 1890 ± 46 µM | EC50 [2]: 1590 ± 28 µM

C[C@H](CC[C@@H](O[C@@H]1O[C@H](CO[C@@H]2O[C@H](CO)[C@@H](O)[C@H](O)[C@H]2O)[C@@H](O)[C@H](O)[C@H]1O[C@@H]1O[C@H](CO)[C@@H](O)[C@H](O)[C@H]1O)C(C)(C)O)[C@H]1CC[C@@]2(C)[C@@H]3CC=C4[C@@H](CC[C@H](O[C@@H]5O[C@H](CO[C@@H]6O[C@H](CO)[C@@H](O)[C@H](O)[C@H]6O)[C@@H](O)[C@H](O)[C@H]5O)C4(C)C)[C@]3(C)[C@H](O)C[C@]12C [Mogroside V, mogroside V]
R1 = Variant EC50/WT EC50 (TAS1R2-WT + TAS1R3-WT): 1.0 | Max ΔF/F0 (TAS1R2-WT + TAS1R3-WT): 1.28 ± 0.03 | EC50 [1]: 17.3 ± 1.2 µM | R1 = Variant EC50/WT EC50 (TAS1R2-WT/TAS1R3-WT): 1.0 | Max ΔF/F0 (TAS1R2-WT/TAS1R3-WT): 0.93 ± 0.01 | EC50 [2]: 31.3 ± 0.8 µM

COc1ccc(CCC(=O)c2c(O)cc(O[C@@H]3O[C@H](CO)[C@@H](O)[C@H](O)[C@H]3O[C@@H]3O[C@@H](C)[C@H](O)[C@@H](O)[C@H]3O)cc2O)cc1O [NHDC, neohesperidin dihydrochalcone]
R1 = Variant EC50/WT EC50 (TAS1R2-WT + TAS1R3-WT): 1.0 | Max ΔF/F0 (TAS1R2-WT + TAS1R3-WT): 0.71 ± 0.02 | EC50 [1]: 76.7 ± 4.4 µM | R1 = Variant EC50/WT EC50 (TAS1R2-WT/TAS1R3-WT): 1.0 | Max ΔF/F0 (TAS1R2-WT/TAS1R3-WT): 1.13 ± 0.01 | EC50 [2]: 50.3 ± 11 µM

COC(=O)[C@H](Cc1ccccc1)NC(=O)[C@H](CC(=O)O)NCCC(C)(C)C [Neotame]
R1 = Variant EC50/WT EC50 (TAS1R2-WT + TAS1R3-WT): 1.0 | Max ΔF/F0 (TAS1R2-WT + TAS1R3-WT): 0.56 ± 0.03 | EC50 [1]: 0.84 ± 0.13 µM | R1 = Variant EC50/WT EC50 (TAS1R2-WT/TAS1R3-WT): 1.0 | Max ΔF/F0 (TAS1R2-WT/TAS1R3-WT): 0.65 ± 0.02 | EC50 [2]: 1.22 ± 0.11 µM

C=C(C)[C@@H]1CC=C(/C=N/O)CC1 [Perillartine, perillartine]
R1 = Variant EC50/WT EC50 (TAS1R2-WT + TAS1R3-WT): 1.0 | Max ΔF/F0 (TAS1R2-WT + TAS1R3-WT): 1.47 ± 0.07 | EC50 [1]: 17.5 ± 2.2 µM | R1 = Variant EC50/WT EC50 (TAS1R2-WT/TAS1R3-WT): 1.0 | Max ΔF/F0 (TAS1R2-WT/TAS1R3-WT): 1.51 ± 0.22 | EC50 [2]: 13.8 ± 6.3 µM

C=C1C[C@@]23CC[C@H]4[C@@](C)(CCC[C@@]4(C)C(=O)O[C@@H]4O[C@H](CO)[C@@H](O)[C@H](O[C@@H]5O[C@H](CO)[C@@H](O)[C@H](O)[C@H]5O)[C@H]4O[C@@H]4O[C@H](CO)[C@@H](O)[C@H](O)[C@H]4O)[C@@H]2CC[C@]1(O[C@@H]1O[C@H](CO)[C@@H](O)[C@H](O[C@@H]2O[C@H](CO)[C@@H](O)[C@H](O)[C@H]2O)[C@H]1O[C@@H]1O[C@H](CO)[C@@H](O)[C@H](O)[C@H]1O)C3 [Rebaudioside M, rebaudioside M]
R1 = Variant EC50/WT EC50 (TAS1R2-WT + TAS1R3-WT): 1.0 | Max ΔF/F0 (TAS1R2-WT + TAS1R3-WT): 1.12 ± 0.01 | EC50 [1]: 16.9 ± 0.5 µM | R1 = Variant EC50/WT EC50 (TAS1R2-WT/TAS1R3-WT): 1.0 | Max ΔF/F0 (TAS1R2-WT/TAS1R3-WT): 0.69 ± 0.02 | EC50 [2]: 40.4 ± 2.9 µM

OC[C@H]1O[C@H](O[C@]2(CCl)O[C@H](CCl)[C@@H](O)[C@@H]2O)[C@H](O)[C@@H](O)[C@H]1Cl [Sucralose]
R1 = Variant EC50/WT EC50 (TAS1R2-WT + TAS1R3-WT): 1.0 | Max ΔF/F0 (TAS1R2-WT + TAS1R3-WT): 0.59 ± 0.03 | EC50 [1]: 90 ± 11 µM | R1 = Variant EC50/WT EC50 (TAS1R2-WT/TAS1R3-WT): 1.0 | Max ΔF/F0 (TAS1R2-WT/TAS1R3-WT): 0.65 ± 0.01 | EC50 [2]: 109 ± 4 µM

brazzein (QDKCKKVYENYPVSKCQLANQCNYDCKLDKHARSGECFYDEKRNLQCICDYCEY; ends and bridges not checked; cysteine pairing not given here; UniProt P56552 1-54, looked up) [sweet-tasting protein obtained by recombinant production using the yeast Pichia pastoris]
R1 = Variant EC50/WT EC50 (TAS1R2-WT + TAS1R3-WT): 1.0 | Max ΔF/F0 (TAS1R2-WT + TAS1R3-WT): 1.17 ± 0.04 | R1 = Variant EC50/WT EC50 (TAS1R2-WT/TAS1R3-WT): 1.0 | EC50 (TAS1R2-WT/TAS1R3-WT, brazzein): 112.8 ± 11.2 µg/mL | Max ΔF/F0 (TAS1R2-WT/TAS1R3-WT): 0.88 ± 0.03

thaumatin
R1 = Variant EC50/WT EC50 (TAS1R2-WT + TAS1R3-WT): 1.0 | Max ΔF/F0 (TAS1R2-WT + TAS1R3-WT): 0.72 ± 0.01 | R1 = Variant EC50/WT EC50 (TAS1R2-WT/TAS1R3-WT): 1.0 | Max ΔF/F0 (TAS1R2-WT/TAS1R3-WT): 0.57 ± 0.02

B1: thaumatin (protein)
chain: ATFEIVNRCSYTVWAAASKGDAALDAGGRQLNSGESWTINVEPGTKGGKIWARTDCYFDDSGSGICKTGDCGGLLRCKRFGRPPTTLAEFSLNQYGKDYIDISNIKGFNVPMDFSPTTRGCRGVRCAADIVGQCPAKLKAPGGGCNDACTVFQTSEYCCTTGKCGPTEYSRFFKRLCPDAFSYVLDKPTTVTCPGSSNYRVTFCPTA
modifications: Eight disulfides
notes: sweet-tasting plant protein, E957
EC50 [1]: 7.6 ± 0.3 µM | EC50 [2]: 10.4 ± 0.6 µM
